From patent US12421222B2 (AUGUSTINE THERAPEUTICS, priority 2021, dated 2025)

Test system: acetylated tubulin (Lys40) in HeLa cells
Assay: Acetylated α-tubulin measurement in vitro (immunocytochemistry)
Type: cell-based
Details: Homo sapiens, 6 hours incubation, acetylated tubulin (Lys40) by immunocytochemistry, read-out: IC50 (Tubulin deacetylation)
Method in brief: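 HeLa cells in serum-free medium treated 6 h at 37 °C (final DMSO 0.1–0.4%), then PFA-fixed and immunostained for acetyl-Lys40 and total α-tubulin; high-content imaging.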

SMILES | IC50 [nM]
COc1cnc2nc(C)nc(SCC(=O)c3ccc(CN4CCOCC4=O)s3)c2c1 [Example 161, 4-((5-(2-((6-methoxy-2-methylpyrido[2,3-d]pyrimidin-4-yl)thio)acetyl)thiophen-2-yl)methyl)morpholin-3-one] | 100 to 500
COc1cnc2nc(C)nc(SCC(=O)c3ccc(CN(C)C(=O)CO)s3)c2c1 [Example 162, 2-hydroxy-N-((5-(2-((6-methoxy-2-methylpyrido[2,3-d]pyrimidin-4-yl)thio)acetyl)thiophen-2-yl)methyl)-N-methylacetamide] | 100 to 500
COCC(=O)NCc1ccc(C(=O)CSc2nc(C)nc3ncc(OC)cc23)s1 [Example 163, 2-methoxy-N-((5-(2-((6-methoxy-2-methylpyrido[2,3-d]pyrimidin-4-yl)thio)acetyl)thiophen-2-yl)methyl)acetamide] | 100 to 500
COc1ccc2nc(C)nc(SCC(=O)c3ccc(CNC(=O)C4CCCO4)s3)c2c1 (stereo not drawn) [Example 171, N-((5-(2-((6-methoxy-2-methylquinazolin-4-yl)thio)acetyl)thiophen-2-yl)methyl)tetrahydrofuran-2-carboxamide] | 100 to 500
COc1ccc2nc(C)nc(SCC(=O)c3ccc(CNC(=O)C(F)F)s3)c2c1 [Example 172, 2,2-difluoro-N-((5-(2-((6-methoxy-2-methylquinazolin-4-yl)thio)acetyl)thiophen-2-yl)methyl)acetamide] | 100 to 500
O=C(CO)NCc1ccc(C(=O)CSc2nccc3ccncc23)s1 [Example 180, N-((5-(2-((2,7-naphthyridin-1-yl)thio)acetyl)thiophen-2-yl)methyl)-2-hydroxyacetamide] | 100 to 500
O=C(CO)NCc1ccc(C(=O)CSc2nccn3cncc23)s1 [Example 181, 2-hydroxy-N-((5-(2-(imidazo[1,5-a]pyrazin-8-ylthio)acetyl)thiophen-2-yl)methyl)acetamide] | 100 to 500
O=C(CO)NCc1ccc(C(=O)CSc2nccn3nccc23)s1 [Example 182, 2-hydroxy-N-((5-(2-(pyrazolo[1,5-a]pyrazin-4-ylthio)acetyl)thiophen-2-yl)methyl)acetamide] | 500 to 1000
CNCC(=O)NCc1ccc(C(=O)CSc2nc(C)nc3ccc(OC)cc23)s1 [Example 183, N-((5-(2-((6-methoxy-2-methylquinazolin-4-yl)thio)acetyl)thiophen-2-yl)methyl)-2-(methylamino)acetamide] | 100 to 500
COc1ccc2nc(C)nc(SCC(=O)c3ccc(CNC(=O)C4CCCN4)s3)c2c1 (stereo not drawn) [Example 184, N-((5-(2-((6-methoxy-2-methylquinazolin-4-yl)thio)acetyl)thiophen-2-yl)methyl)pyrrolidine-2-carboxamide] | 100 to 500
COc1ccc2nc(C)nc(SCC(=O)c3ccc(CNC(=O)N(C)C)s3)c2c1 [Example 189, 3-((5-(2-((6-methoxy-2-methylquinazolin-4-yl)thio)acetyl)thiophen-2-yl)methyl)-1,1-dimethylurea] | 100 to 500
COc1cnc2nc(C)nc(SCC(=O)c3ccc(CNC(=O)OC(C)(C)C)s3)c2c1 [Example 190, tert-butyl ((5-(2-((6-methoxy-2-methylpyrido[2,3-d]pyrimidin-4-yl)thio)acetyl)thiophen-2-yl)methyl)carbamate] | 100 to 500
Cc1nnc(SCC(=O)c2ccc(CNC(=O)C(C)(C)C)s2)c2ccccc12 [Example 194, N-((5-(2-((4-methylphthalazin-1-yl)thio)acetyl)thiophen-2-yl)methyl)pivalamide] | 500 to 1000

Results, then the compound that gave them:

IC50 [nM] | SMILES
≤ 100 | COc1cc2c(SCC(=O)c3ccc(CNC(=O)CO)s3)nc(C(F)(F)F)nc2cn1 [Example 154, 2-hydroxy-N-((5-(2-((6-methoxy-2-(trifluoromethyl)pyrido[3,4-d]pyrimidin-4-yl)thio)acetyl)thiophen-2-yl)methyl)acetamide]
≤ 100 | O=C(CSc1nc(C(F)(F)F)nc2ncccc12)c1ccc(CN2CCCC2=O)s1 [Example 157, 1-((5-(2-((2-(trifluoromethyl)pyrido[2,3-d]pyrimidin-4-yl)thio)acetyl)thiophen-2-yl)methyl)pyrrolidin-2-one]
100 to 500 | COc1ccc2nc(C)nc(SCC(=O)c3ccc(CNC(=O)CO)s3)c2c1F [Example 158, N-((5-(2-((5-fluoro-6-methoxy-2-methylquinazolin-4-yl)thio)acetyl)thiophen-2-yl)methyl)-2-hydroxyacetamide]
≤ 100 | COc1cc2c(SCC(=O)c3ccc(CN(C)C(=O)CO)s3)nc(C(F)(F)F)nc2cn1 [Example 159, 2-hydroxy-N-((5-(2-((6-methoxy-2-(trifluoromethyl)pyrido[3,4-d]pyrimidin-4-yl)thio)acetyl)thiophen-2-yl)methyl)-N-methylacetamide]
≤ 100 | CCOc1cnc2nc(C)nc(SCC(=O)c3ccc(CNC(=O)CO)s3)c2c1 [Example 160, N-((5-(2-((6-ethoxy-2-methylpyrido[2,3-d]pyrimidin-4-yl)thio)acetyl)thiophen-2-yl)methyl)-2-hydroxyacetamide]
≤ 100 | COc1cnc2nc(C(F)F)nc(SCC(=O)c3ccc(CNC(=O)CO)s3)c2c1 [Example 164, N-((5-(2-((2-(difluoromethyl)-6-methoxypyrido[2,3-d]pyrimidin-4-yl)thio)acetyl)thiophen-2-yl)methyl)-2-hydroxyacetamide]
≤ 100 | COc1ccc2nc(C)nc(SCC(=O)c3ccc(CNC(=O)CN)s3)c2c1 [Example 177, 2-amino-N-((5-(2-((6-methoxy-2-methylquinazolin-4-yl)thio)acetyl)thiophen-2-yl)methyl)acetamide]
≤ 100 | COc1ccc2nc(C)nc(SCC(=O)c3ccc(CNC(=O)C4CN(C)C4)s3)c2c1 [Example 178, N-((5-(2-((6-methoxy-2-methylquinazolin-4-yl)thio)acetyl)thiophen-2-yl)methyl)-1-methylazetidine-3-carboxamide]
≤ 100 | O=C(CO)NCc1ccc(C(=O)CSc2nccc3ncccc23)s1 [Example 179, N-((5-(2-((1,6-naphthyridin-5-yl)thio)acetyl)thiophen-2-yl)methyl)-2-hydroxyacetamide]
≤ 100 | COc1ccc2nc(C)nc(SCC(=O)c3ccc(CNC(=O)[C@H](C)O)s3)c2c1 [Example 185, (S)-2-hydroxy-N-((5-(2-((6-methoxy-2-methylquinazolin-4-yl)thio)acetyl)thiophen-2-yl)methyl)propanamide]
≤ 100 | COc1ccc2nc(C)nc(SCC(=O)c3ccc(CNC(=O)[C@@H](C)O)s3)c2c1 [Example 186, (R)-2-hydroxy-N-((5-(2-((6-methoxy-2-methylquinazolin-4-yl)thio)acetyl)thiophen-2-yl)methyl)propanamide]
